Laboratory results reported in US8772250B2, “Compositions and methods for treating ischemia and ischemia-reperfusion injury” (Ischemix, LLC, priority 2010, dated 2014).
Marks after values point to notes of the source that are not given here.

Test system: myocardial ischemia-reperfusion injury
Assay: Rat model of myocardial I/R injury (MI/AR ratio)
Assay type: in vivo
Conditions: for % Reduction in MI/AR Compared to Vehicle: rat IV
Source text: A rat model of myocardial I/R injury was used as an in vivo screen to determine if certain lipoic acid derivative compounds are cardio-protective (e.g., against mycoardial ischemia-reperfusion injury). This model is analogous to the ischemia-reperfusion injury observed in cardiac patients following coronary occlusions and cardiac surgery procedures, such as coronary artery bypass grafting (CABG) (Matsui, T., Tao, J., del Monte, F., Lee, K.-H. et al., Akt Activation Preserves Cardiac Function and Prevents Injury After Transient Cardiac Ischemia In vivo, Circulation 2001, 104:330).
The circumflex branch of the left coronary artery was ligated temporarily to induce regional ischemia in the left ventricular mass, followed by the injection of fluorescent microspheres to delineate the ischemic region. The animals were sacrificed about 24 hours after reperfusion and the hearts were excised, sectioned and stained with triphenyltetrazolium. The direct impact of the pharmacologic intervention was determined by measuring the myocardial infarct area (MI), the ischemic area at risk (AR) and the left ventricular area (LV). The reduction of MI over the AR (MI/AR ratio) was used as the primary measure of drug efficacy relative to vehicle controls.
Male Sprague-Dawley rats between 300 and 350 gm were used for these experiments. Anesthesia was induced with 3-4% isoflurane in an induction chamber. After induction, anesthesia was maintained at a surgical plane with 1.5-2.0% isoflurane, administered by a Rodent Ventilator through a 16-gauge angiocatheter introduced orally into the trachea. The ventilator was set at 2.5 cc at a rate of 60-65 breaths per minute to maintain ventilation during surgery. The core temperature of the animal was monitored and maintained at 37° C. using a rectal probe and a heating lamp attached to a temperature controller.
A left anterior thoracotomy was performed and the heart was exposed using a vertical pericardotomy. The circumflex branch of the left coronary artery (LCx) was ligated approximately 4 mm from the aorta using a cardiovascular 7.0 monofilament suture on an 11 mm needle to induce ischemia in the left ventricle.
Fluorescent microspheres (300 μL) were injected into the left ventricular cavity 10-20 minutes after the ligation to delineate the ischemic area. The suture was removed 30 minutes after ligation to reperfuse the ischemic area and the ischemic area was checked for reperfusion.
The chest was then closed in layers using absorbable suture (Dexon 5-0) for the muscle layers and monofilament Nylon 5-0 suture was used to close the cutaneous layer. The animals were allowed to recover, then were returned to the colony.
Twenty-four hours after reperfusion, anesthesia was induced using ketamine hydrochloride and the chest was opened. The animals were sacrificed with 15% potassium chloride aqueous solution (w/v) injected into the LV cavity to arrest the heart in diastole. The heart was excised distal to the aortic valve and washed with saline to remove the blood. Sagittal slices of the heart were obtained between the base of the ventricle and the apex. Five slices of heart tissue were obtained, each 2 mm thick. The slices were immersed in a 1% 2,3,5-triphenyl-2H-tetrazolium chloride (TTC) in saline solution and then stored in the dark for 30 minutes to stain.
Images of the slices were obtained under bright field (to observe the TTC staining) and under fluorescence (to observe the microspheres). The area at risk was determined by the absence of microspheres and the infarct area was determined by the absence of TTC staining.
In vivo experiments employing a rat model of myocardial I/R injury were performed as described in Example 8. Catheterized (jugular vein) rats were used for intravenous dose administration at time points prior to and/or including 0.25 h.

Structure (SMILES): C[C@H](NC(=O)[C@H](CCC(=O)O)NC(=O)CCCC[C@@H]1CCSS1)C(=O)O [RLip-EA-OH, N-(R)-lipoyl-L-glutamyl-L- alanine]
- % Reduction in MI/AR Compared to Vehicle (Entry 2b: 3 mg/kg (1 h infusion) at −1 h): 12%
- % Reduction in MI/AR Compared to Vehicle (Entry 5: 15 mg/kg at −0.25 h): 30* %
- % Reduction in MI/AR Compared to Vehicle (Entry 7: 10 mg/kg at −3 h): 33* %
- % Reduction in MI/AR Compared to Vehicle (Entry 12: 10 and 10 mg/kg at −3 and −0.25 h): 43* %
- % Reduction in MI/AR Compared to Vehicle (Entry 13: 20 and 10 mg/kg at −3 and −0.25 h): 38* %
- % Reduction in MI/AR Compared to Vehicle (Entry 16: 10 and 10 and 10 mg/kg at −3 and −0.25 h and at reperfusion): 15%
- % Reduction in MI/AR compared to vehicle controls (rat, Table 11: 10 mg/kg at −3 h): 29%
- reduction of MI (meta-analysis) (rat, multiple dosing 10 mg/kg at −3 h and −0.25 h): 43%
